Data on six molecules can be found in patent US20250353891A1 (MEDIMMUNE LIMITED, priority 2022, published 2025).

The target of assay [1] is human glucagon receptor (hGCGR) (Homo sapiens, UniProt P47871). Kind of assay: cAMP production (HTRF) in CHO cells expressing hGCGR. In kind it is cell-based. Particulars: Table 7, peptides modified at position 20; cAMP in CHO hGCGR cells; geometric mean; read-out: hGluc-R EC50. Set-up: expressed in transfected cells. The essentials:
(§1)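 Read-out: HTRF cAMP (anti-cAMP cryptate donor, cAMP-d2 acceptor in conjugate/lysis buffer), converted to % Delta F and fitted by 4-parameter logistic for EC50. Cell densities were 1×10^5 cells/mL (hGLP-1R) or 2×10^5 cells/mL (hGCGR). Stimulation lasted 30 min at room temperature.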
(Changes in cAMP serve as a functional read-out for many G protein-coupled receptors.)

The target of assay [2] is human GLP-1 receptor (hGLP-1R) (Homo sapiens, UniProt P43220). The assay is described as follows: cAMP production (HTRF) in CHO cells expressing hGLP-1R. More on the design: expressed in transfected cells. The format is cell-based. Particulars: for EC50: Table 7, peptides modified at position 20, cAMP in CHO hGLP-1R cells, geometric mean, read-out: hGLP-1R EC50; for % Relative Potency Ratio: Table 7, % GLP-1R activity relative to GLP-1 / % GlucR activity relative to glucagon. The method, boiled down: as §1
Chain of human GLP-1 receptor (hGLP-1R) (P43220 24-463): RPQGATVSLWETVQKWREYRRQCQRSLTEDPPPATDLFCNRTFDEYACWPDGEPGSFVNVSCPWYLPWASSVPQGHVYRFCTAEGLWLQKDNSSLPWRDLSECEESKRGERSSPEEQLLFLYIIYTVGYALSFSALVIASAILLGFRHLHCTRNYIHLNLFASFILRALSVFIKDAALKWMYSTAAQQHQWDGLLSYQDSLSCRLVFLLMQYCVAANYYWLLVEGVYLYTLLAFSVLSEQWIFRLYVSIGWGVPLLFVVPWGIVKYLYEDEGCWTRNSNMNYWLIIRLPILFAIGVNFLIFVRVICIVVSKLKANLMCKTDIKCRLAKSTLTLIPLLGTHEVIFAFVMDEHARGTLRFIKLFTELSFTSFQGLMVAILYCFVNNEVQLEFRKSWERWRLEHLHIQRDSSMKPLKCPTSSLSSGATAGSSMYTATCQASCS

Starred links: 1 amine or outer side, 2 acyl side, 3 side chain; linkers in the order of their positions; H or OH if unused. Non-standard residues stand in square brackets, D forms with d. Residues, ends and D or L forms follow the SMILES beside them. Groups on a side chain read outwards from the residue. *: point of attachment. C20 diacid = O=C(O)CCCCCCCCCCCCCCCCCCC(=O)*; C18 diacid = O=C(O)CCCCCCCCCCCCCCCCC(=O)*; γGlu = O=C(O)[C@H](CCC(=O)[*:2])N[*:1]; αMeF = C[C@](N)(Cc1ccccc1)C(=O)O; AEEA = NCCOCCOCC(=O)O; Aib = CC(C)(N)C(=O)O

Chain of human glucagon receptor (hGCGR) (P47871 26-477): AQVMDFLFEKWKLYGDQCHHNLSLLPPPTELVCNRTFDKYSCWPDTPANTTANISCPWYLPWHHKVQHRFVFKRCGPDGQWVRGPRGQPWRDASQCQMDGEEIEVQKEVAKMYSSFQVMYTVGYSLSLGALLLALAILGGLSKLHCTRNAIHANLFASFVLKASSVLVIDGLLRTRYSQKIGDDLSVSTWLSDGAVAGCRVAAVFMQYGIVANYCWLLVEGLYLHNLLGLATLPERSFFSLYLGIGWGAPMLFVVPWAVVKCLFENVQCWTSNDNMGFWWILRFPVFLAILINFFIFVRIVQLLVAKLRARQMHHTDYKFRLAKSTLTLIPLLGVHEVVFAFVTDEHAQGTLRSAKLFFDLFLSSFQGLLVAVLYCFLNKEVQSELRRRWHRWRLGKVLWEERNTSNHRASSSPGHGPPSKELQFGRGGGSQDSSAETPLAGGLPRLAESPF

On to `CC[C@H](C)[C@H](NC(=O)C(C)(C)NC(=O)[C@H](CCC(N)=O)NC(=O)[C@@H](NC(=O)[C@](C)(Cc1ccccc1)NC(=O)[C@H](CC(=O)O)NC(=O)[C@H](CCCCNC(=O)COCCOCCNC(=O)COCCOCCNC(=O)CC[C@H](NC(=O)CCCCCCCCCCCCCCCCC(=O)O)C(=O)O)NC(=O)[C@H](C)NC(=O)[C@H](C)NC(=O)[C@H](CCCNC(=N)N)NC(=O)[C@H](CO)NC(=O)[C@H](CC(=O)O)NC(=O)[C@H](CC(C)C)NC(=O)[C@](C)(Cc1ccccc1)NC(=O)[C@H](CCCNC(=N)N)NC(=O)[C@H](CO)NC(=O)[C@@H](NC(=O)[C@H](CC(=O)O)NC(=O)[C@H](CO)NC(=O)[C@@H](NC(=O)[C@](C)(Cc1ccccc1)NC(=O)[C@H](CO)NC(=O)CNC(=O)[C@H](Cc1c[nH]cn1)NC(=O)C(C)(C)NC(=O)[C@@H](N)Cc1c[nH]cn1)[C@@H](C)O)C(C)C)C(C)C)C(=O)N[C@@H](C)C(=O)N[C@@H](CC(N)=O)C(=O)N[C@H](C(N)=O)[C@@H](C)O` [Peptide 297] (H-H[Aib]HGS[αMeF]TSDVSR[αMeF]LDSRAAK([AEEA-AEEA-γGlu-C18 diacid])D[αMeF]VQ[Aib]IANT-NH2), for which the figures for the EC50 in assay [1] and in assay [2] were 104 pM and 30.4 pM, respectively. Besides, in assay [2], the “% Relative Potency Ratio” value was 6.8.
For the molecule `CC[C@H](C)[C@H](NC(=O)C(C)(C)NC(=O)[C@H](CCC(N)=O)NC(=O)[C@@H](NC(=O)[C@](C)(Cc1ccccc1)NC(=O)[C@H](CC(=O)O)NC(=O)[C@H](CCCCNC(=O)COCCOCCNC(=O)COCCOCCNC(=O)CC[C@H](NC(=O)CC[C@H](NC(=O)CCCCCCCCCCCCCCCCCCC(=O)O)C(=O)O)C(=O)O)NC(=O)[C@H](C)NC(=O)[C@H](C)NC(=O)[C@H](CCCNC(=N)N)NC(=O)[C@H](CO)NC(=O)[C@H](CC(=O)O)NC(=O)[C@H](CC(C)C)NC(=O)[C@](C)(Cc1ccccc1)NC(=O)[C@H](CCCNC(=N)N)NC(=O)[C@H](CO)NC(=O)[C@@H](NC(=O)[C@H](CC(=O)O)NC(=O)[C@H](CO)NC(=O)[C@@H](NC(=O)[C@](C)(Cc1ccccc1)NC(=O)[C@H](CO)NC(=O)CNC(=O)[C@H](Cc1c[nH]cn1)NC(=O)C(C)(C)NC(=O)[C@@H](N)Cc1c[nH]cn1)[C@@H](C)O)C(C)C)C(C)C)C(=O)N[C@@H](C)C(=O)N[C@@H](CC(N)=O)C(=O)N[C@H](C(N)=O)[C@@H](C)O` [Peptide 298] (H-H[Aib]HGS[αMeF]TSDVSR[αMeF]LDSRAAK([AEEA-AEEA-γGlu-γGlu-C20 diacid])D[αMeF]VQ[Aib]IANT-NH2), the EC50 in assay [1] amounted to 573 pM; in assay [2], 75.5 pM. In addition, in assay [2], the “% Relative Potency Ratio” value is listed as 15.0.
Take `CC[C@H](C)[C@H](NC(=O)C(C)(C)NC(=O)[C@H](CCC(N)=O)NC(=O)[C@@H](NC(=O)[C@](C)(Cc1ccccc1)NC(=O)[C@H](CC(=O)O)NC(=O)[C@H](CCCCNC(=O)COCCOCCNC(=O)COCCOCCNC(=O)CC[C@H](NC(=O)CC[C@H](NC(=O)CCCCCCCCCCCCCCCCCCC(=O)O)C(=O)O)C(=O)O)NC(=O)[C@H](C)NC(=O)[C@H](C)NC(=O)[C@H](CCCNC(=N)N)NC(=O)[C@H](CO)NC(=O)[C@H](CC(=O)O)NC(=O)[C@H](CC(C)C)NC(=O)[C@](C)(Cc1ccccc1)NC(=O)[C@H](CCCCN)NC(=O)[C@H](CO)NC(=O)[C@@H](NC(=O)[C@H](CC(=O)O)NC(=O)[C@H](CO)NC(=O)[C@@H](NC(=O)[C@](C)(Cc1ccccc1)NC(=O)[C@H](CO)NC(=O)CNC(=O)[C@H](Cc1c[nH]cn1)NC(=O)C(C)(C)NC(=O)[C@@H](N)Cc1c[nH]cn1)[C@@H](C)O)C(C)C)C(C)C)C(=O)N[C@@H](C)C(=O)N[C@@H](CCC(=O)O)C(=O)N[C@H](C(N)=O)[C@@H](C)O` [Peptide 299] (H-H[Aib]HGS[αMeF]TSDVSK[αMeF]LDSRAAK([AEEA-AEEA-γGlu-γGlu-C20 diacid])D[αMeF]VQ[Aib]IAET-NH2): the EC50 in assay [1] was 193 pM; in assay [2], 75.8 pM.
Turning to `CC[C@H](C)[C@H](NC(=O)C(C)(C)NC(=O)[C@H](CCC(N)=O)NC(=O)[C@@H](NC(=O)[C@](C)(Cc1ccccc1)NC(=O)[C@H](CC(=O)O)NC(=O)[C@H](CCCCNC(=O)COCCOCCNC(=O)COCCOCCNC(=O)CC[C@H](NC(=O)CCCCCCCCCCCCCCCCC(=O)O)C(=O)O)NC(=O)[C@H](C)NC(=O)[C@H](C)NC(=O)[C@H](CCCNC(=N)N)NC(=O)[C@H](CO)NC(=O)[C@H](CC(=O)O)NC(=O)[C@H](CC(C)C)NC(=O)[C@](C)(Cc1ccccc1)NC(=O)[C@H](CCCCN)NC(=O)[C@H](CO)NC(=O)[C@@H](NC(=O)[C@H](CC(=O)O)NC(=O)[C@H](CO)NC(=O)[C@@H](NC(=O)[C@](C)(Cc1ccccc1)NC(=O)[C@H](CO)NC(=O)CNC(=O)[C@H](Cc1c[nH]cn1)NC(=O)C(C)(C)NC(=O)[C@@H](N)Cc1c[nH]cn1)[C@@H](C)O)C(C)C)C(C)C)C(=O)N[C@@H](C)C(=O)N[C@@H](CC(N)=O)C(=O)N[C@H](C(=O)O)[C@@H](C)O` [Peptide 303] (H-H[Aib]HGS[αMeF]TSDVSK[αMeF]LDSRAAK([AEEA-AEEA-γGlu-C18 diacid])D[αMeF]VQ[Aib]IANT-OH), the EC50 in assay [1] amounted to 99.6 pM. In addition, in assay [2], the concentration for a half-maximal effect (EC50) is 99.1 pM and the “% Relative Potency Ratio” value is 2.0.
As for `CC[C@H](C)[C@H](NC(=O)C(C)(C)NC(=O)[C@H](CCC(N)=O)NC(=O)[C@@H](NC(=O)[C@](C)(Cc1ccccc1)NC(=O)[C@H](CC(=O)O)NC(=O)[C@H](CCCCNC(=O)COCCOCCNC(=O)COCCOCCNC(=O)CC[C@H](NC(=O)CC[C@H](NC(=O)CCCCCCCCCCCCCCCCCCC(=O)O)C(=O)O)C(=O)O)NC(=O)[C@H](C)NC(=O)[C@H](C)NC(=O)[C@H](CCCNC(=N)N)NC(=O)[C@H](CO)NC(=O)[C@H](CC(=O)O)NC(=O)[C@H](CC(C)C)NC(=O)[C@](C)(Cc1ccccc1)NC(=O)[C@H](CCCCN)NC(=O)[C@H](CO)NC(=O)[C@@H](NC(=O)[C@H](CC(=O)O)NC(=O)[C@H](CO)NC(=O)[C@@H](NC(=O)[C@](C)(Cc1ccccc1)NC(=O)[C@H](CO)NC(=O)CNC(=O)[C@H](Cc1c[nH]cn1)NC(=O)C(C)(C)NC(=O)[C@@H](N)Cc1c[nH]cn1)[C@@H](C)O)C(C)C)C(C)C)C(=O)N[C@@H](C)C(=O)N[C@@H](CC(N)=O)C(=O)N[C@H](C(=O)O)[C@@H](C)O` [Peptide 304] (H-H[Aib]HGS[αMeF]TSDVSK[αMeF]LDSRAAK([AEEA-AEEA-γGlu-γGlu-C20 diacid])D[αMeF]VQ[Aib]IANT-OH), the EC50 in assay [1] was 687 pM. In addition, in assay [2], the EC50 stood at 239 pM and the “% Relative Potency Ratio” value turned out to be 5.7.
In the same order, the values of `CC[C@H](C)[C@H](NC(=O)[C@H](Cc1c[nH]c2ccccc12)NC(=O)[C@H](CCC(N)=O)NC(=O)[C@@H](NC(=O)[C@H](Cc1ccccc1)NC(=O)[C@H](CC(=O)O)NC(=O)[C@H](CCCCNC(=O)COCCOCCNC(=O)COCCOCCNC(=O)CC[C@H](NC(=O)CC[C@H](NC(=O)CCCCCCCCCCCCCCCCCCC(=O)O)C(=O)O)C(=O)O)NC(=O)[C@H](C)NC(=O)[C@H](C)NC(=O)[C@H](CCCNC(=N)N)NC(=O)[C@H](CO)NC(=O)[C@H](CC(=O)O)NC(=O)[C@H](CC(C)C)NC(=O)[C@](C)(Cc1ccccc1)NC(=O)[C@H](CCCCN)NC(=O)[C@H](CO)NC(=O)[C@@H](NC(=O)[C@H](CC(=O)O)NC(=O)[C@H](CO)NC(=O)[C@@H](NC(=O)[C@H](Cc1ccccc1)NC(=O)[C@@H](NC(=O)CNC(=O)[C@H](Cc1c[nH]cn1)NC(=O)C(C)(C)NC(=O)[C@@H](N)Cc1c[nH]cn1)[C@@H](C)O)[C@@H](C)O)C(C)C)C(C)C)C(=O)N[C@@H](C)C(=O)N[C@@H](CC(N)=O)C(=O)N[C@H](C(N)=O)[C@@H](C)O` [Peptide 305] are 155 pM, 211 pM and 1.5.

The EC50 is the concentration that produces a half-maximal response.
